Assay results reported in publication PMC10793205, “Differential transmetallation of complexes of the anti-cancer thiosemicarbazone, Dp4e4mT: effects on anti-proliferative efficacy, redox activity, oxy-myoglobin and oxy-hemoglobin oxidation” (Chemical Science, 2023).
Entries after “also recorded” stand apart in the source; their conditions may differ.

Columns and labels:
[1] = tested on: H2DCF; assay: Redox activity: H2DCF oxidation to DCF (cell-free, L-cysteine/H2O2); assay type: biochemical; conditions: 10 μM, pH 7.4 and pH 5, no added CuCl2
Procedure: Redox activity in cells was examined using an established in vitro method examining 2′,7′-dichlorodihydrofluorescein (H2DCF) oxidation to fluorescent 2′,7′-dichlorofluorescein (DCF) at cytosolic pH (pH 7.4 using HBSS buffer) relative to lysosomal pH (pH 5; acetate buffer; Fig. 5).[25,26,28,42,46] To these buffers containing the complexes, L-cysteine (100 μM) was added as a reducing agent, followed by H2DCF (5 μM). Then, hydrogen peroxide (H2O2; 100 μM) was added to initiate hydroxyl radical generation. Both [Cu(DpC)Cl2] and [Cu(DpC)2] were used as positive controls due to their documented redox activity.[28,42] In contrast, the ligand, DpC, was implemented as a negative control, as it is redox inert.[28,42] As an additional control, the established Cu chelator, tetrathiomolybdate (TM), was utilized to remove Cu from the thiosemicarbazone complexes to indicate its role in their redox activity.[27,28,42] Additionally, UV-vis spectroscopy (300–700 nm) of the same solution for each complex was also performed to understand both the oxidation of H2DCF and the formation of fluorescent DCF upon excitation at 503 nm (Fig. S20A–F and S21A–F ^†). […]
ROS Generation Analysis with H 2DCF-DA
The generation of reactive oxygen species (ROS) was assessed by examining the oxidation of H2DCF.2, 8, 13, 14 Solutions containing CuCl2, TM, DpC, Dp4e4mT, [Fe(DpC)2]+, [Cu(DpC)Cl2], [Cu(DpC)2] and the Dp4e4mT complexes were prepared at a concentration of 10 µM in either HBSS (pH 7.4) or 150 mM acetate buffer (pH 5) to simulate the conditions of the cytosol and lysosome, respectively.2, 8, 14, 15 The H2DCF was prepared by deacetylation of DCFH-DA (Sigma-Aldrich) through alkaline hydrolysis using NaOH. 16
In these prepared solutions, L-cysteine (100 µM) was added as a reducing agent and then H2DCF (5 µM) added. The initiation of hydroxyl radical generation was achieved by the addition of hydrogen peroxide (H2O2; 100 µM). As a comparative benchmark, HBSS or acetate buffer containing L-cysteine, H2DCF, and H2O2, but lacking ligands or metal complexes, was employed as a control. Fluorescence measurements were carried out using a CLARIOstar Plus microplate reader (BMG LABTECH, Australia) with an excitation wavelength of 485 nm and an emission wavelength of 530 nm. 8, 14

[2] = target: T1, oxy-Hb in intact human erythrocytes (Homo sapiens, UniProt P68871+P69905); assay: Oxidation of oxy-Hb in intact human erythrocytes; assay type: cell-based; conditions: 10 μM, 3 h/37 °C
T1 construct: Physiologically, oxy-Hb is found in erythrocytes; endogenous in cells; host or cells: intact human erythrocytes from fresh blood of healthy donors
Procedure: Fig. 7 (A and B) Investigation of the effects of Dp4e4mT and its Fe(III), Co(III), Ni(II), Cu(II), Zn(II), Ga(III), and Pd(II) complexes versus DFO, Dp44mT, DpC and their Fe(III) complexes (10 μM) on met-Hb generation (% zero time) after an incubation of 1–3 h/20 °C with purified oxy-Hb (40 μM). (C) Investigation of the effects of Dp4e4mT and its Fe(III), Co(III), Ni(II), Cu(II), Zn(II), Ga(III), or Pd(II) complexes relative to the positive controls DFO, Dp44mT, DpC, and their Fe(III) complexes (10 μM) on oxy-Hb oxidation in intact human erythrocytes after a 3 h/37 °C incubation. Results are mean ± SD (3 experiments).
Physiologically, oxy-Hb is found in erythrocytes, and in the current investigation, the ligands and complexes (10 μM) were incubated with intact human erythrocytes for 3 h/37 °C to assess their effects on oxy-Hb oxidation (Fig. 7C). As expected from our previous studies,[28,39] […]
In experiments examining the activity of the agents, all complexes were dissolved in 1,2-propanediol, then diluted to 10 µM in PBS (pH 7.2). […]
1800; Shimadzu, Kyoto, Japan). Concentrations of met-Mb and met-Hb, as well as reduced-Mb and reduced-Hb, were determined at 409 nm and 435 nm, respectively. Concentrations of oxy-Mb and oxy-Hb were determined at 544 nm and 582 nm, respectively. 17 Oxidation of Oxy-Hb in Human Erythrocytes
Oxidation of oxy-Hb in human erythrocytes was performed by standard methods using fresh blood from healthy donors after collection in Vacutainer® collection tubes (BD, Plymouth, UK).8 Erythrocytes centrifuged (480 xg/5 min/4°C) and then washed in HBSS, and subsequently resuspended in this buffer. Incubation of the erythrocytes (15% hematocrit) in the absence or presence of the agents (10 μM) was performed for 3 h/37°C. The erythrocytes were […]

[3] = Cyclic voltammetry (redox potentials); assay type: physicochemical; conditions: 1 mM in MeCN/H2O 7 : 3 (v/v) + 0.1 M Et4NClO4, sweep rate 100 mV s^−1
From the text: The redox potentials of Fe(III)- and Cu(II)-thiosemicarbazone complexes have been extensively studied and are important for understanding intracellular redox activity and ROS generation.[23,27,28,42] Considering this, the electrochemical properties of [Fe(Dp44mT)2]^+, [Fe(DpC)2]^+, [Fe(Dp4e4mT)2]^+, [Co(Dp4e4mT)2]^+, [Ni(Dp4e4mT)2], [Cu(Dp4e4mT)Cl], [Ga(Dp4e4mT)2]^+, and [Pd(Dp4e4mT)Cl] were investigated with cyclic voltammetry in MeCN : H2O (70 : 30 v/v; Fig. 4A and B). This solvent system was implemented to provide sufficient solubility and because it has been used by our laboratories previously to measure potentials of thiosemicarbazone complexes enabling effective comparison.[28,45,57–59]
Fig. 4 Cyclic voltammograms of: (A) [Fe(Dp44mT)2]^+, [Fe(DpC)2]^+, and [Fe(Dp4e4mT)2]^+. (B) [Co(Dp4e4mT)2]^+, [Ni(Dp4e4mT)2], [Cu(Dp4e4mT)Cl], [Ga(Dp4e4mT)2]^+, and [Pd(Dp4e4mT)Cl] (1 mM in MeCN/H2O 7 : 3 (v/v) + 0.1 M Et4NClO4) at a sweep rate of 100 mV s^−1. The voltammograms were recorded using a glassy carbon working electrode versus a […] (NHE). […]
Cyclic voltammograms were acquired for the Fe(III), Co(III), Ni(II), Cu(II), Ga(III), and Pd(II) complexes of Dp4e4mT utilizing a BAS100B/W potentiostat, equipped with an aqueous Ag/AgCl reference electrode, a glassy carbon working electrode, and a Pt wire auxiliary […]
electrode. […]

[4] = target: T2, oxy-Mb (Homo sapiens, UniProt P02144); assay: Oxidation of purified oxy-Mb to met-Mb (UV-vis); assay type: biochemical; conditions: 10 μM agent, oxy-Mb 40 μM, 3 h incubation, 20 °C
T2 sequence (P02144 1-154): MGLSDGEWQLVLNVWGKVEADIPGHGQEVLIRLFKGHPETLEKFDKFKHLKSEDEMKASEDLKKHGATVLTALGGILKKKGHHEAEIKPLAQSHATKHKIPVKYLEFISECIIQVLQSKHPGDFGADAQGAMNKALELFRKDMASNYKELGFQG
From the text: As such, it was important to examine the effect of the Dp4e4mT complexes on oxy-Hb and oxy-Mb oxidation (Fig. 6 and 7). Comparisons were made to three controls, namely DFO, Dp44mT, and DpC, as well as their Fe(III) complexes. […] In contrast, the Fe(III) complexes of Dp44mT and DpC were positive controls, as they induce oxidation of oxy-Mb.[28,39,42]
Fig. 6 (A and B) Investigation of the effects of Dp4e4mT and its Fe(III), Co(III), Ni(II), Cu(II), Zn(II), Ga(III), and Pd(II) complexes versus the positive controls DFO, Dp44mT, DpC and their Fe(III) complexes (10 μM) on met-Mb generation (% zero time) after an incubation of 1–3 h/20 °C with purified oxy-Mb (40 μM). Results are mean ± SD (3 experiments).
Spectroscopic Examination of Met-Mb and Met-Hb Formation from Oxy-Mb and Oxy- […]
Oxy-Mb and oxy-Hb solutions were prepared following established protocols.8, 17 In brief, solutions of reduced Mb and Hb in PBS (pH 7.2) were prepared by adding 1.2 mL of Na2S2O4 (12 mM) to 38 mL of met-Mb and met-Hb solution (40 μM). 17 Subsequently, oxy-Mb and oxy-Hb were generated by gently passing 150 mL of oxygen (from an air-filled syringe) through the solution containing reduced Mb and Hb, effectively eliminating any residual Na2S2O4. Following this, the oxy-Mb and oxy-Hb solutions were passed through a PD-10 column prepacked with 8.3 mL of Sephadex G-25 and equilibrated with PBS (pH 7.2). 17 In experiments examining the activity of the agents, all complexes were dissolved in 1,2-propanediol, then diluted to 10 µM in PBS (pH 7.2). The experiments were conducted over incubations of 0 to 3 h with the agents. UV-Vis spectra covering the range of 300 to 700 nm were recorded at a temperature of 20°C using a Shimadzu UV−Vis spectrophotometer (UV-1800; Shimadzu, Kyoto, Japan). Concentrations of met-Mb and met-Hb, as well as reduced-Mb and reduced-Hb, were determined at 409 nm and 435 nm, respectively. Concentrations of oxy-Mb and oxy-Hb were determined at 544 nm and 582 nm, respectively. 17

T1 sequence (P69905 2-142 limits assumed): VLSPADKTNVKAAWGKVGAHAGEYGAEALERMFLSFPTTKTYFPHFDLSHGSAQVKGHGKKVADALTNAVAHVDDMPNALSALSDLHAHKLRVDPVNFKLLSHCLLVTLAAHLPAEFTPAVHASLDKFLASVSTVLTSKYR
T1 sequence (P68871 2-147 limits assumed): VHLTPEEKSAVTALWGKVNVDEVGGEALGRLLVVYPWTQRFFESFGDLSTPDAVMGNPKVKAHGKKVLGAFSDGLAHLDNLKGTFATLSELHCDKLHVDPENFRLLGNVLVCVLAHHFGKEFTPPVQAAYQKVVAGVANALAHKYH

| Structure (SMILES) | DCF fluorescence (H2DCF oxidation) of agent alone [1] | oxy-Hb oxidation in erythrocytes versus the control (in words) [2] | Redox potential (mV vs. NHE) [3] | oxy-Mb oxidation (met-Mb generation) [4] | other results |
| --- | --- | --- | --- | --- | --- |
| [Cl][Cu][Cl] [CuCl2, reference compound] | significantly (p < 0.0001–0.01) increased DCF fluorescence | – | – | – | – |
| CC(=O)N([O-])CCCCCNC(=O)CCC(=O)N([O-])CCCCCNC(=O)CCC(=O)N([O-])CCCCCN.[Fe+3] [DFO Fe(III) complex, reference compound] | – | did not induce any significant (p > 0.05) increase in oxy-Hb oxidation | – | – | – |
| [SH-].[SH-].[S]=[Mo]=[S] [TM, tetrathiomolybdate, reference compound] | did not significantly (p > 0.05) increase DCF fluorescence | – | – | – | – |
| CN(C(=S)NN=C(c1ccccn1)c1ccccn1)C1CCCCC1.[Cl-].[Cl-].[Cu+2] [[Cu(DpC)Cl2], reference compound] | significantly (p < 0.0001–0.01) increased DCF fluorescence; also recorded: greatest efficacy at increasing DCF fluorescence | – | – | – | – |
| CN(C)C([S-])=NN=C(c1ccccn1)c1ccccn1.CN(C)C([S-])=NN=C(c1ccccn1)c1ccccn1.[Fe+3] [[Fe(Dp44mT)2]^+, reference compound] | – | – | +166 mV vs. NHE | 222 % of the control | oxy-Hb oxidation to met-Hb in erythrocytes ([2]; control 0.5%): 34.4 % of the total |
| CN(C([S-])=NN=C(c1ccccn1)c1ccccn1)C1CCCCC1.CN(C([S-])=NN=C(c1ccccn1)c1ccccn1)C1CCCCC1.[Fe+3] [[Fe(DpC)2]^+, reference compound] | – | did not induce any significant (p > 0.05) increase in oxy-Hb oxidation | +149 mV vs. NHE | 161 % of the control | – |
